Results reported in paper PMC5007466, “VCP recruitment to mitochondria causes mitophagy impairment and neurodegeneration in models of Huntington's disease” (Nature Communications, 2016).

Legend:
R6/2 mice [1] = assay: VCP mitochondrial level, R6/2 mouse striatum; format: in vivo; conditions: R6/2, 3 mg kg^−1 per day from 5 to 9 weeks versus TAT, n=6
Method: Cells were washed with cold PBS and incubated on ice for 30 min in a lysis buffer (250 mM sucrose, 20 mM HEPES-NaOH, pH 7.5, 10 mM KCl, 1.5 mM MgCl2, 1 mM EDTA, protease inhibitor cocktail and phosphatase inhibitor cocktail). Mouse brains were minced and homogenized in the lysis buffer and then placed on ice for 30 min. Collected cells or tissue were disrupted 20 times by repeated aspiration through a 25-gauge needle, followed by a 30-gauge needle. The homogenates were spun at 800 g for 10 min at 4 °C, and the resulting supernatants were spun at 10,000 g for 20 min at 4 °C. The pellets were washed with lysis buffer and spun at 10,000 g again for 20 min at 4 °C. The final pellets were suspended in lysis buffer containing 1% Triton X-100 and were mitochondrial-rich lysate fractions. The supernatant was centrifuged at 100,000 g, 4 °C, for 1 h, the pellets were suspended in lysis buffer containing 1% Triton X-100 as ER fractions. The final supernatant was cytosolic fractions. The mitochondrial proteins VDAC, the ER protein WFS1 and the cytosolic protein Enolase were used as loading controls for mitochondrial, ER and cytosolic fractions, respectively.
Male R6/2 mice and their wt littermates (4 weeks old) were purchased from Jackson Laboratories (Bar Harbor, ME; B6CBA-TgN (HD exon 1)62; JAX stock number: 006494). […]
Protein concentrations were determined by Bradford assay. […]

YAC128 mice = assay: General motility, YAC128 (24 h locomotor activity); format: in vivo, mouse; conditions: YAC128, 3 mg/kg/day from 3 months; from 6 to 12 months of age, n=15–20
Text: YAC128 (FVB-Tg(YAC128)53Hay/J, JAX stock number: 004938) breeders (FVB/N genetic background) were purchased from Jackson Laboratories. The YAC128 mice contain a full-length human huntingtin gene modified with a 128 CAG repeat expansion in exon 1. The mice were mated, bred and genotyped in the animal facility of Case Western Reserve University. Male mice at the ages of 2, 3, 6, 9 and 12 months were used in the study.
YAC128 mice (Tg) and their age-matched wt littermates were implanted with an osmotic pump containing TAT control peptide or HV-3 peptide (3 mg/kg/day, each) starting from the age of 3 months. The pump was replaced once every month. By the age of 12 months, the treatments were terminated and the mouse samples were harvested for analysis.
Gross locomotor activity was assessed in R6/2 mice and age-matched wt littermates at the ages of 13 weeks and in YAC128 mice and age-matched wt littermates at the ages of 2, 3, 6, 9, and 12 months. In an activity chamber (Omnitech Electronics, Inc), mice were placed in the center of the chamber and allowed to explore while being tracked by an automated beam system (Vertax, Omnitech Electronics Inc). Distance moved, horizontal, vertical, and rearing activities were recorded. Because R6/2 mice were sensitive to changes in environment and handling, we only conducted one-hour locomotor activity analysis for R6/2 mice and wt littermates. […]

R6/2 mice [2] = assay: PGC1-alpha protein level in mouse brain; format: in vivo; conditions: R6/2 mouse brains (peer review file)
Text: Comment 2: Also how do the authors fit this in with the well-established defects in PGC1-alpha in HD. Do you have to have both?
Response: We thank the reviewer for these insightful comments. Following […]
mouse brains of R6/2 mice treated with either HV-3 or control peptide TAT.
Consistent with previous studies, we observed that PGC1-alpha was decreased in HD R6/2 mouse brains. To our surprise, treatment with HV-3 can partially […]
on the right). It is possible that this increase in PGC1-alpha level is an indirect effect of improvement of mitochondrial mass and quality by the HV-3 treatment.
Recent studies have shown that PGC1-alpha regulates mitophagy and autophagy via TFEB (Tsunemi T et al., Sci Trans Med, 2014; Siddiqui A et al., J Neurosci, 2015). Thus, our result may raise another possibility that there is a correlation between PGC1alpha and VCP-mediated mitophagy in HD. However, the mechanism remains to be determined, and it is beyond the scope of this manuscript. In response to the reviewer’s comment, we now add the following sentences in the discussion in the revised manuscript.
“In addition, PGC1α, a key regulator of mitochondrial biogenesis implicated in HD pathogenesis, has recently been reported to regulate mitophagy and autophagy through TFEB signaling 65, 66. […]

CSCC[C@H](NC(=O)[C@@H](NC(=O)[C@H](CC(C)C)NC(=O)[C@@H](NC(=O)[C@H](Cc1c[nH]cn1)NC(=O)CCCCCNC(=O)[C@H](CCCNC(=N)N)NC(=O)[C@H](CCCNC(=N)N)NC(=O)[C@H](CCCNC(=N)N)NC(=O)[C@H](CCC(N)=O)NC(=O)[C@H](CCCNC(=N)N)NC(=O)[C@H](CCCNC(=N)N)NC(=O)[C@H](CCCCN)NC(=O)[C@H](CCCCN)NC(=O)[C@H](CCCNC(=N)N)NC(=O)CNC(=O)[C@@H](N)Cc1ccc(O)cc1)C(C)C)C(C)C)C(=O)N[C@@H](CS)C(=O)N[C@@H](C)C(=O)N[C@H](C(N)=O)[C@@H](C)O [HV-3]
VCP translocation to mitochondria in striatum (R6/2 mice [1]): suppressed the VCP translocation to mitochondria
general movement activity (YAC128 mice): improved general movement activity
PGC1-alpha protein level (R6/2 mice [2]): improve the protein level of PGC1-alpha in the R6/2 mouse brains
